Assay results: patent publication US20090042783A1, “APO E ANALOGS AND METHODS FOR THEIR USE” (priority 2004, published 2009)
Like-named read-outs stand apart in the source and are kept apart here. No end group written: not given here.

Legend:
[1] = system: mice receiving total body irradiation; details: cited from earlier work
[2] = system: BV2 murine microglial cells
Method: For Applicants preliminary work, the two most common PTDs, TAT and penetratin, were used.
Cell Culture: BV-2, a well-characterized murine microglial cell line (Bochinni, 1992), is cultured in high glucose content DMEM supplemented with 1% penicillin/streptomycin, 10% fetal calf serum, 1% nonessential amino acids, and 1% sodium pyruvate. Cells are grown to confluency; trypsinized; spun down; resuspended in serum-free OptiMEM containing 1% N2 supplement, 1% penicillin/streptomycin, 1% nonessential amino acids, and 1% sodium pyruvate; and plated at a concentration of 20,000 cells/well to remove any nonadherent cells and serum.
Supernatant is collected 24 and/or 48 h after LPS stimulation and assayed for nitrite.
Quantification of Nitric Oxide (NO): Accumulation of nitrite (stable end product of NO production) in the medium is measured by colometric Griess reagent system (Promega); the absorbance is determined at 540 nm.
Cell Viability Assay: Cell viability is measured using a nonradioactive cell viability assay (cell titer 96 AQ, Promega). The assay measures the bioreduction of MTS (3-(4,5-dimethylthiazole-2-)-5-(3-carboxymethoxyphenyl)-2-(4-sulfophenyl)-2H-tetrazolium by viable cells into formazan. The absorbance of the calorimetric assay is measured at λ 490 nm. Viability is assessed and used to normalize the nitrite data.

[3] = system: mice with traumatic brain injury; assay: Closed head injury model of traumatic brain injury (rotorod, Morris Water Maze)
[4] = system: BV2 microglial cells
Method: For suppression of inflammation profiling, each peptide analog was tested at a final concentration of 0.1, […], 1, 3, 5, 10 and 25 μM in an LPS induced BV2 microglial cell release of NO and/or TNFα. […] The modification was a biotin label on the apoE peptide (biotin-[…]-amide) which allows detection with ^125I-streptavidin (ISA, Amersham).
In overview, BV-2 cells are plated in 96 well plates in complete media and then the media is replaced the next day with serum free media or reduced serum (1%) media. […] Each concentration of peptide (standard initial concentrations are 0.1, 0.5, 1, 3, 10 and 25 μM) is added to at least 6 wells of cells (e.g. 6 wells get 0.1 μM peptide, 6 wells get 0.5 μM peptide, etc.) and data are averaged from all 6 wells. […] (2001). Cell viability is also measured with an MTT assay (Laskowitz et al. 2001).

[5] = system: RAW 264.7 macrophages
[6] = system: RAW 264.7 macrophages; assay: NO production and iNOS mRNA in C. rodentium-stimulated macrophages; type: cell-based, mouse
Text: RAW 264.7 cells were stimulated with French-pressed lysates of C. rodentium at a multiplicity of infection of 100. […] B, RT-PCR for iNOS.
We used bacterial lysates to more closely mimic the bacterial products to which lamina propria macrophages are likely to be exposed.

[7] = system: peritoneal macrophages; assay: Peritoneal macrophage production of NO, TNFα and IL-6 induced by MOG or LPS/IFN-γ; type: cell-based, mouse
Method: For this purpose, three mice with clinical scores of 0 and three with clinical scores of 4 at 30 dpi (day post-immunization) were used for preparation of peritoneal macrophage cultures. Macrophages were collected after peritoneal lavage with 3 ml heparin (10 U/ml)-containing PBS and then seeded to 96-well microplates at a density of 1×10^5 cells/well in Dulbecco's MEM containing 10% fetal bovine serum, 2 mM L-glutamine serum, 1% HEPES and 100 U/ml penicillin and 100 μg/ml streptomycin, 37° C. in a humidified incubator with 5% CO2. 24 h later, the serum-containing medium was removed and cells were washed once with serum-free medium. To examine the differentiated response of macrophage to immune stimulators, macrophages obtained from mice with clinical scores of 0 or 4 were exposed to serial concentrations of IFN-γ/LPS or MOG35-55 peptide. […] Media were collected at 45 h or 72 h, and analyzed by ELISA for […] and IL-6 or for nitric oxide (NO) as detailed below.
As the stable end product of nitric oxide release, nitrite levels in conditioned media were determined by injecting 50 μl media sample into a Sievers 280 NOA analyzer (Boulder, Colo., USA). Total protein (μg/well) was measured using the BCA method (Pierce, Rockford, Ill., USA) according to manufacturer's instructions with BSA as standard. BCA values were measured using a Molecular Devices Thermomax Microplate Reader (Menlo Park, Calif., USA) at OD562. Nitric oxide levels ere expressed as μM NO2—/mg protein.
For cytokine assays, supernatants were collected 45 h after […]/LPS or MOG treatments and quantitative ELISAs using selected pairs of monoclonal antibodies (as recommended by the manufacturer Biosource) were performed to quantify the cytokines, TNF-α and IL-6. For TNF-α ELISA, 96-well ELISA plates were pre-coated with rabbit anti-mouse polyclonal to TNF-α as capture antibodies for 18 h at 2-8° C. and then blocked for 2 h at room temperature. The wells were incubated with samples or mouse TNF-α standards. Following incubation for 2 h at room temperature, the wells were washed, after which hamster anti-mouse TNF-α biotinylated secondary antibody and horseradish peroxidase conjugate were added. Tetramethylbenzidine (TMB) solution was then added, and peroxidase-catalyzed color change was stopped by acidification with 2 NH2SO4. The plates were scanned at wavelength 450 nm and the absorbance were measured. The results are expressed as the mean concentration (pg/ml) ±SEM.
For IL-6 ELISA, rat anti-mouse monoclonal to IL-6 was used as capture antibody, and biotinylated rat anti-mouse monoclonal to IL-6 as detection antibody. The rest of procedure is identical to that of TNF-α ELISA.

[8] = system: mice; assay: Maximum tolerated dose, tail vein injection; details: mouse, in vivo
Method: Candidate compounds are then be screened in our closed head injury model of traumatic brain injury by intravenous dosing at 30 minutes post injury. Novel compounds are initially tested at one half their maximum tolerated dose (0.5×MTD). The maximum tolerated dose (MTD) is the dose of peptide given in a tail vein injection that results in no death of mice. Death is defined as a complete lack of breathing and complete unresponsiveness to external stimuli such as tail pinch and/or toe pinch for a period of 10 or more minutes. Animals are given an initial dose of 1 mg/kg of peptide analog or non-peptide mimetic and observed continuously for 15 minutes and then at 15 minute intervals for 2 hours and then at 1 hour intervals for 4 hours more. Animals are also observed at 24 hours post injection.
The maximum tolerated dose is the maximum dose at which no animals die at any of these observation times. As an example of this procedure, the MTD is determined empirically by initially dosing groups of 3 mice at 1 mg/kg. If this dose is tolerated, then another group of 3 mice is dosed at 3 mg/kg. If this dose is tolerated, then another group of 3 mice is dosed at 9 mg/kg, etc. If, for example, 9 mg/kg is not tolerated because 1 or more animal died, then doses in-between 3 mg/kg and 9 mg/kg are investigated until the MTD is found. Once the MTD is empirically determined, it is confirmed in another group of 7 mice for a total of 10 mice being tested at the MTD and all of which must not die to confirm that this is the MTD.

[9] = system: C57BL/6J mice with MOG-induced EAE; assay: MOG-induced experimental autoimmune encephalomyelitis (EAE); details: preliminary data
Method: EAE was induced in mice following the method of Feinstein et al. (Feinstein, Galea, et al. 2002) 1) two s.c. injections, one on each flank of the hind legs with 300 μg MOG35-55 peptide in 0.1 ml PBS emulsified in an equal volume of CFA containing 5 mg/ml of Mycobacterium tuberculosis H37RA (Difco, St. Louis, Mo.) were given on Day 0.2) Pertussis toxin (200 ng per mouse in 0.1 ml PBS) was given i.p. immediately and 48 h after first MOG injection. 3) a booster immunization with an identical emulsion, route of administration and location was given on Day 7.
Following the encephalitogenic challenge, mice were monitored daily and neurological impairment was evaluated by clinical score (C.S.) as follows: 0, no clinical signs of EAE; 1, limp tail; 2, flaccid tail and abnormal gait (ataxia and/or paresis of hind limbs); 3, severe hind limb paresis; 4, complete paralysis with hind body; and 5, moribund or death.
Mice were anesthetized, bled, and perfused with 25 ml PBS and 25 ml 4% paraformaldehyde in buffered PBS. Brains and spinal cords were dissected out from 3 mice with a clinical score of 0 and another 3 mice with a clinical score of 4 on day 30 post-immunization. Tissues were post-fixed in 4% paraformaldehyde for another 24 h and then stored in 1×PBS with 0.1% sodium azide. Fixed tissues were embedded in paraffin and 5 μm thick sections were cut from brain, the brain stem and three different levels of spinal cord (cervical, thoracic and lumbar). Sections were stained with hematoxylin/eosin for evidence of inflammation and Luxol fast blue (for demyelination). The severity of inflammation was evaluated using the following criteria: 0, no inflammation; 1, cellular infiltrates only in the perivascular areas and meninges; 2, mild cellular infiltrates only in parenchyma (1-10/section); 3, moderate cellular infiltrates in parenchyma (11-100/section); 4, marked cellular infiltrates in parenchyma (>100 section).
In total, 10 doses of peptides were given.

[10] = in vivo; details: male, C57B1/6, mouse, 0.4 mg/kg
[11] = molecular target: cellular receptor bound by the apoE 133-149 peptide (on cells, 250,000 cells per well); assay: competition with biotinylated apoE 133-149 for binding to whole cells (250,000 cells/well, 4 C), 125I-streptavidin detection

In the case of `NCCCNCCSP(=O)(O)O` [amifostene, reference compound], the Dose reduction factor ([1]; 30 days post-irradiation, given immediately before irradiation (Hall 2000)) is listed as 2.7.

In the case of “Ac-RQIKIWFQNRRMKWKKLRVRLASHLRKLRKRLL-NH2 (N-terminus and C-terminus assumed) [COG4502]”, the IC50 [2] is reported as 0.7 µM, the “Increase in potency relative to COG133” value [2] is reported as 40 fold and the “Suppression of LPS-stimulated nitrite secretion” value [2] is reported as “significantly more potent than COG133”. The “Suppression of NO production at 25 μM” value ([2]; 25 μM) was 100%, the “Increase of efficacy of COG133 when conjugated to penetratin” value ([2]; FIG. 18 vs FIG. 16) was “about 100 fold” and the IC50 ([2]; read-out: Dose for fifty percent suppression of LPS-stimulated nitrite secretion, FIG. 18) was ~0.03 µM. The IC50 ([2]; read-out: IC50 TNFα, in vitro) was 1.1 µM, the “Rotorod performance, conjugates given at varying times following TBI” value ([3]; FIG. 20: 90 minutes following TBI) was “can increase the therapeutic window of COG133” and the “In vivo Therapeutic window time expanded?” value ([3]; mouse, in vivo) was “Yes; tested at 4 X”. The “Suppression of NO and/or TNFα release from LPS treated BV2 cells” value [4] was “much better than the COG133 parent”, the IC50 ([4]; 40 h) was ~0.01 µM and the “Concentration at which cell toxicity was noted” value [5] was 10 µM. For the same molecule, the “Concentration range where toxicity did not occur” value [5] was 0.1 to 5 µM, the “NO production (nitrite levels) in macrophage supernatants” value ([6]; C. rodentium lysates, COG1410 2 μM, COG4502 0.1-5 μM) was “inhibition of NO production” and the “iNOS mRNA expression” value ([6]; RT-PCR) was “significant, concentration-dependent inhibition of iNOS mRNA expression”. The “Inhibition of cytokine production induced by MOG or LPS/IFN-γ” value [7] was “significantly more powerful in inhibiting cytokine production”, the “Production of NO, TNFα and IL-6 at 5 μM” value ([7]; 5 μM, MOG or LPS/IFN-γ) was “inhibited the production of NO, TNFα and IL-6 completely” and the “TNFa and IL6 release from peritoneal macrophages” value ([7]; gamma interferon and LPS, 24 hours) was “dose dependent inhibition of TNFa release and a dose dependent inhibition of IL6 release”.

In the case of `CC(=O)N[C@@H](CC(C)C)C(=O)N[C@@H](CCCNC(=N)N)C(=O)N[C@H](C(=O)N[C@@H](CCCNC(=N)N)C(=O)N[C@@H](CC(C)C)C(=O)N[C@@H](C)C(=O)N[C@@H](CO)C(=O)N[C@@H](Cc1c[nH]cn1)C(=O)N[C@@H](CC(C)C)C(=O)N[C@@H](CCCNC(=N)N)C(=O)N[C@@H](CCCCN)C(=O)N[C@@H](CC(C)C)C(=O)N[C@@H](CCCNC(=N)N)C(=O)N[C@@H](CCCCN)C(=O)N[C@@H](CCCNC(=N)N)C(=O)N[C@@H](CC(C)C)C(=O)N[C@@H](CC(C)C)C(N)=O)C(C)C` [COG133], the “Therapeutic Index (ratio of the MTD to the MED)” value [8] is reported as 3.5, the IC50 ([2]; read-out: IC50 NO, 50% suppression of NO production, normalized on cell viability) is reported as 25 µM and the EC50 ([4]; read-out: EC50 (50% reduction of NO or TNFα release), LPS induced BV2 cells) is reported as 3.5 µM. For the same molecule, the IC50 ([4]; read-out: IC50, inhibition of nitric oxide release, BV2 cells, LPS for 40 hours, approximate) was ~2 µM, the “Tolerability in mice with EAE” value [9] was “well tolerated” and the half-life [10] was 8 min.

With LRVRLASHLRKLRKRLL (not fully specified) [apoE 133-149 peptide (COG133), unlabeled] the IC50 [11] was 4 µM.

B1: rIL11: rIL11 given to irradiated mice (Van der Meeren et al. 2002) (protein, UniProt P20809 22-199, looked up)
Interleukin-11: PGPPPGPPRVSPDPRAELDSTVLLTRSLLADTRQLAAQLRDKFPADGDHNLDSLPTLAMSAGALGALQLPGVLTRLRADLLSYLRHVQWLRRAGGSSLKTLEPELGTLQARLDRLLRRLQLLMSRLALPQPPPDPPAPPLAPPSSAWGGIRAAHAILGGLHLTLDWAVRGLLLLKTRL
For B1, the “Survival rate at 30 days post-TBI” value ([1]; 8 Gy, 2 hour delay, every day for 5 days (Van der Meeren et al. 2002)) is given as 74%.
